Where two headings read alike, the source gives them in different places.

Holding throughout (assay): microbe, parasite or virus in culture
What all share (assay type): cell-based, Hepatitis C virus (HCV)

The test system of test [1] is HCV replicon 1A. The note with it: Replicon Assay A. In a few lines: (§1)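 Three-day treatment of replicon cells (2000/well, 5% FBS, 0.5% DMSO), followed by TaqMan RT-PCR of replicon RNA with cyclophilin as internal control.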
Background: In antiviral work, replicon cells carry a viral genome segment that copies itself.

Test [2] concerns HCV replicon 2B. The conditions noted are these: Replicon Assay A. In outline: as §1
Test [3] deals with HCV replicon 1AQ30D. The note with it: Replicon Assay B. On the procedure:
(§2) In an alternate assay (“Replicon Assay B”), 1000 cells were seeded per well in a 384-well collagen coated black plate from Greiner bio-one (Cat #781946) in 5% FBS. Inhibitors of this invention were added at 24 h post-seeding, and the plates were incubated for 3 days. Cells were subsequently lysed with Qiagen lysis buffer (Cat #1062731) to extract the RNA. HCV replicon RNA level was measured by real-time PCR using the RNA-to-CT kit from Applied Biosystem (Cat #4392656) and genotype-specific primers and probes. The amplicon was located within NS5B. […] (SEQ. ID NO. 2); the probe sequence was FAM-labeled […] (SEQ. ID NO. 3).
(§3) The real-time RT-PCR reactions were run on ABI PRISM 7900HT or Viia7 Sequence Detection System using the following program: 48° C. for 30 minutes, 95° C. for 10 minutes, 40 cycles of 95° C. for 15 sec, 60° C. for 1 minutes.
(§4) Data for replicons 1A, 1AY93H and 2B were obtained using Replicon Assay A and data for replicons 1AQ30D and 1B were obtained using Replicon Assay B.

Test [4] has as its system HCV replicon 1B. The conditions noted are these: Replicon Assay B. On the procedure:
as §2, §3, §4

Test [5] deals with HCV replicon 1AY93H. The note with it: Replicon Assay A. In a few lines:
as §1

[6] abbreviates: HCV replicon 2B, read-out: 2B IC50.
Where [7] appears, read: Hepatitis C virus, read-out: 1A Y93H IC50 (nM), replicon 1AY93H.
Setting [8] is: Hepatitis C virus, read-out: 2B IC50 (nM), replicon 2B.
Setting [9] is: Hepatitis C virus, read-out: 1A Q30D IC50 (nM), replicon 1AQ30D.
[10] abbreviates: read-out: 1A Y93H IC50, replicon 1AY93H.
[11] abbreviates: read-out: 1A Y93H IC50, HCV replicon 1A Y93H.
Setting [12] is: read-out: 2B IC50, HCV replicon 2B.
Setting [13] is: Hepatitis C virus, read-out: 1A Q30D IC50, HCV replicon 1A Q30D.
Where [14] appears, read: Hepatitis C virus, read-out: 2B IC50, HCV replicon 2B.
Where [15] appears, read: Hepatitis C virus, HCV replicon 1B.
The mark [16] stands for this setting: HCV replicon 1A Y93H, read-out: 1A Y93H IC50.

`COC(=O)NC(C(=O)N1CCCC1c1ncc(-c2cc(F)c3c(c2)OC(c2ccc(C4CC4)s2)n2c-3cc3cc(-c4cnc(C5CCCN5C(=O)C(NC(=O)OC)C5CCOC(C)C5)[nH]4)ccc32)[nH]1)C(C)C` (mixture of isomers) [Compound 849]: the IC50 (commonly the midpoint of a concentration-inhibition curve) in test [1] (HCV replicon 1A) turned out to be 2.3 pM; in test [2] (setting [6]), 0.005 nM; in test [3] (HCV replicon 1A Q30D, read-out: 1A Q30D IC50), 0.029 nM; in test [4] (HCV replicon 1B), 2.9 pM.

Regarding `COC(=O)N[C@H](C(=O)N1CCC[C@H]1c1ncc(-c2cc(F)c3c(c2)OC(c2ccc(C4CC4)s2)n2c-3cc3cc(-c4cnc([C@@H]5CCCN5C(=O)[C@@H](NC(=O)OC)C(C)C)[nH]4)ccc32)[nH]1)C(C)C` (single isomer, unassigned) [Compound 5], the 50% inhibitory concentration (IC50) in test [5] (setting [7]) was found to be 0.95 nM; in test [1] (Hepatitis C virus, replicon 1A), 4.6 pM; in test [2] (setting [8]), 2.08 nM; in test [3] (setting [9]) it was 28.3 nM.

With `COC(=O)N[C@H](C(=O)N1CCC[C@H]1c1ncc(-c2cc(F)c3c(c2)OC(c2ccc(OC)s2)n2c-3cc3cc(-c4cnc([C@@H]5CCCN5C(=O)[C@@H](NC(=O)OC)C(C)C)[nH]4)ccc32)[nH]1)C(C)C` (single isomer, unassigned) [Compound 20], the IC50 was 0.014 nM in test [5] (setting [10]); 0.051 nM in test [2] (read-out: 2B IC50, replicon 2B); 0.38 nM in test [3] (setting [9]); 1.1 pM in test [4] (Hepatitis C virus, replicon 1B).

As to `COC(=O)N[C@H](C(=O)N1[C@@H]2C[C@@H]2C[C@H]1c1ncc(-c2cc(F)c3c(c2)OC(c2ccc(C4CC4)s2)n2c-3cc3cc(-c4cnc([C@@H]5C[C@H]6C[C@H]6N5C(=O)[C@@H](NC(=O)OC)C(C)C)[nH]4)ccc32)[nH]1)C(C)C` (single isomer, unassigned) [Compound 88], the half-maximal inhibitory concentration (IC50) came out at 0.007 nM in test [5] (setting [10]); 0.59 nM in test [2] (read-out: 2B IC50, replicon 2B); 0.3 nM in test [3] (read-out: 1A Q30D IC50, replicon 1AQ30D); 1.4 pM in test [4] (replicon 1B).

For `COC(=O)N[C@H](C(=O)N1CCC[C@H]1c1ncc(-c2cc(F)c3c(c2)OC(c2csc(C4CC4)c2)n2c-3cc3cc(-c4cnc([C@@H]5CCCN5C(=O)[C@@H](NC(=O)OC)C(C)C)[nH]4)ccc32)[nH]1)C(C)C` (single isomer, unassigned) [Compound 322], the IC50 in test [5] (setting [10]) is 0.0297 nM; in test [2] (setting [8]) it was 0.29 nM; in test [3] (setting [9]), 0.82 nM.

For the compound `COC(=O)N[C@H](C(=O)N1CCC[C@H]1c1ncc(-c2cc(F)c3c(c2)OC(c2ccc(C(C)C)s2)n2c-3cc3cc(-c4cnc([C@@H]5CCCN5C(=O)[C@@H](NC(=O)OC)C5CCOCC5)[nH]4)ccc32)[nH]1)C(C)C` (single isomer, unassigned) [Compound 345], the 50% inhibitory concentration (IC50) came to 0.0012 nM in test [5] (setting [10]); 0.0072 nM in test [2] (read-out: 2B IC50, replicon 2B); 0.0235 nM in test [3] (setting [9]).

For `COCC(C)(C)c1ccc(C2Oc3cc(-c4cnc([C@@H]5CCCN5C(=O)[C@@H](NC(=O)OC)C(C)C)[nH]4)cc(F)c3-c3cc4cc(-c5cnc([C@@H]6CCCN6C(=O)[C@@H](NC(=O)OC)C(C)C)[nH]5)ccc4n32)s1` (single isomer, unassigned) [Compound 399], the concentration for half-maximal inhibition (IC50) in test [5] (setting [10]) is 0.0145 nM; in test [1] (Hepatitis C virus, replicon 1A), 2.7 pM; in test [2] (read-out: 2B IC50, replicon 2B) it was 0.274 nM; in test [3] (setting [9]) it was 0.292 nM.

Consider `COC(=O)NC(C(=O)N1CCC[C@H]1c1ncc(-c2ccc3c(c2)cc2n3C(c3ccc(CC4CC4)s3)Oc3cc(-c4cnc([C@@H]5CCCN5C(=O)[C@@H](NC(=O)OC)C(C)C)[nH]4)cc(F)c3-2)[nH]1)C1CCOC(C)(C)C1` (single isomer, unassigned) [Compound 410], for which the IC50 worked out at 0.0034 nM in test [5] (setting [11]); 0.0041 nM in test [2] (setting [12]); 0.106 nM in test [3] (read-out: 1A Q30D IC50, HCV replicon 1A Q30D); 3.3 pM in test [4] (HCV replicon 1B).

As for `COC(=O)NC(C(=O)N1CCC[C@H]1c1ncc(-c2ccc3c(c2)cc2n3C(c3ccc(C4CC4)s3)Oc3cc(-c4cnc([C@@H]5CCCN5C(=O)[C@@H](NC(=O)OC)C(C)C)[nH]4)cc(F)c3-2)[nH]1)C1CC(C)(C)OC(C)(C)C1` (single isomer, unassigned) [Compound 421], the IC50 in test [5] (setting [11]) was 0.0127 nM; in test [1] (HCV replicon 1A) it was 2.3 pM; in test [2] (setting [12]) it was 0.0184 nM; in test [3] (setting [13]) it was 0.126 nM.

As to `COC(=O)N[C@H](C(=O)N1C[C@H](F)C[C@H]1c1cnc(-c2ccc3c(c2)cc2n3C(c3cc4ccccc4s3)Oc3cc(-c4cnc([C@@H]5C[C@@H](F)CN5C(=O)[C@@H](NC(=O)OC)C(C)C)[nH]4)ccc3-2)[nH]1)C(C)C` (single isomer, unassigned) [Compound 805], the IC50 in test [5] (setting [11]) was found to be 0.01 nM; in test [1] (HCV replicon 1A) it was 10 pM; in test [2] (setting [14]), 21.5 nM; in test [4] (setting [15]), 5 pM.

With `COC(=O)N[C@H](C(=O)N1C[C@H](F)C[C@H]1c1cnc(-c2ccc3c(c2)cc2n3C(c3cc4ccccc4s3)Oc3cc(-c4cnc([C@@H]5C[C@@H](F)CN5C(=O)[C@@H](NC(=O)OC)C(C)C)[nH]4)ccc3-2)[nH]1)C(C)C` (single isomer, unassigned) [Compound 806], the IC50 in test [5] (setting [11]) stood at 0.023 nM; in test [1] (HCV replicon 1A), 41 pM; in test [2] (setting [12]), 42.9 nM; in test [4] (HCV replicon 1B) it was 9 pM.

For the compound `COC(=O)N[C@H](C(=O)N1CCC[C@H]1c1ncc(-c2cc(F)c3c(c2)OC(c2ccc(C4(C)CC4)s2)n2c-3cc3cc(-c4cnc([C@@H]5CCCN5C(=O)[C@@H](NC(=O)OC)C(C)C)[nH]4)ccc32)[nH]1)C(C)C` (single isomer, unassigned) [Compound 835], the half-maximal inhibitory concentration (IC50) in test [5] (setting [16]) was found to be 0.943 nM; in test [1] (HCV replicon 1A), 3.5 pM; in test [2] (setting [6]), 1.31 nM; in test [4] (HCV replicon 1B), 1.4 pM.

In the case of `COC(=O)N[C@H](C(=O)N1CCC[C@H]1c1ncc(-c2cc(F)c3c(c2)OC(c2ccc(C4CC4)s2)n2c-3c(C)c3cc(-c4cnc([C@@H]5CCCN5C(=O)[C@@H](NC(=O)OC)C(C)C)[nH]4)ccc32)[nH]1)C(C)C` (single isomer, unassigned) [Compound 841], the half-inhibitory concentration (IC50) in test [5] (setting [16]) came to 0.849 nM; in test [1] (HCV replicon 1A) it was 2.6 pM; in test [2] (setting [6]), 0.523 nM; in test [4] (HCV replicon 1B), 1.7 pM.

As to `COC(=O)NC(C(=O)N1CCC[C@H]1c1ncc(-c2ccc3c(c2)cc2n3C(c3cc4c(s3)CCC4)Oc3cc(-c4cnc([C@@H]5CCCN5C(=O)[C@@H](NC(=O)OC)C(C)C)[nH]4)cc(C)c3-2)[nH]1)C1CCOC(C)(C)C1` (single isomer, unassigned) [Compound 852], the IC50 in test [5] (setting [11]) is 1.32 nM; in test [1] (Hepatitis C virus, HCV replicon 1A), above 3 pM; in test [2] (setting [12]), 0.058 nM; in test [4] (setting [15]), 2.5 pM.

On to `CCCc1ccc(C2Oc3cc(-c4cnc([C@@H]5CCCN5C(=O)[C@@H](NC(=O)OC)C(C)C)[nH]4)cc(F)c3-c3cc4cc(-c5cnc([C@@H]6CCCN6C(=O)[C@@H](NC(=O)OC)C(C)C)[nH]5)ccc4n32)s1` (stereo partly shown) [Compound 34], for which the concentration for half-maximal inhibition (IC50) was 0.005 nM in test [5] (setting [7]); 2.8 pM in test [1] (Hepatitis C virus, replicon 1A); 0.1 nM in test [2] (setting [8]); 0.16 nM in test [3] (setting [9]).

With `COC(=O)NC(C(=O)N1CCC[C@H]1c1ncc(-c2cc(F)c3c(c2)OC(c2ccc(C4CC4)s2)n2c-3cc3cc(-c4cnc([C@@H]5C[C@H]6C[C@H]6N5C(=O)[C@@H](NC(=O)OC)C(C)C)[nH]4)ccc32)[nH]1)C(C)(C)F` (stereo partly shown) [Compound 97], the IC50 was found to be 0.008 nM in test [5] (setting [7]); 1.1 pM in test [1] (Hepatitis C virus, replicon 1A); 0.036 nM in test [2] (setting [8]); 2.4 pM in test [4] (Hepatitis C virus, replicon 1B).

For `COC(=O)NC(C(=O)N1CCC[C@H]1c1ncc(-c2cc(F)c3c(c2)OC(c2ccc(C4CC4)s2)n2c-3cc3cc(-c4cnc([C@@H]5CCCN5C(=O)[C@@H](NC(=O)OC)C5CCOCC5)[nH]4)ccc32)[nH]1)C(C)(C)F` (stereo partly shown) [Compound 170], the half-inhibitory concentration (IC50) in test [5] (setting [10]) amounted to 0.056 nM; in test [1] (replicon 1A) it was 1 pM; in test [2] (read-out: 2B IC50, replicon 2B) it was 0.05 nM; in test [4] (replicon 1B) it was 3.3 pM.

For `COC(=O)N[C@H](C(=O)N1CCC[C@H]1c1ncc(-c2cc(F)c3c(c2)OC(c2ccc(C4CC4)s2)n2c-3cc3cc(-c4cnc([C@@H]5C[C@H]6C[C@H]6N5C(=O)[C@@H](NC(=O)OC)C5CCOCC5)[nH]4)ccc32)[nH]1)C(C)C` (stereo partly shown) [Compound 653], the half-inhibitory concentration (IC50) in test [5] (Hepatitis C virus, read-out: 1A Y93H IC50, HCV replicon 1A Y93H) amounted to 0.00135 nM; in test [2] (setting [14]), 0.00144 nM; in test [3] (setting [13]), 0.00911 nM; in test [4] (setting [15]) it was 1.55 pM.
